According to US9732075B2, “Benzimidazole-proline derivatives” (IDORSIA PHARMACEUTICALS LTD, priority 2012, dated 2017):

What was measured:
[1] = biological target: human orexin-1 receptor (Homo sapiens (Human), UniProt O43613); test: In vitro assay: intracellular calcium measurements (FLIPR), antagonistic activity; assay type: cell-based; settings: CHO cells expressing human orexin-1 receptor, orexin-A agonist, geometric mean, read-out: IC50 Ox1
Experimental: (§1) In Vitro Assay: Intracellular Calcium Measurements:
(§2) Chinese hamster ovary (CHO) cells expressing the human orexin-1 receptor and the human orexin-2 receptor, respectively, are grown in culture medium (Ham F-12 with L-Glutamine) containing 300 μg/ml G418, 100 U/ml penicillin, 100 μg/ml streptomycin and 10% heat inactivated fetal calf serum (FCS). The cells are seeded at 20,000 cells/well into 384-well black clear bottom sterile plates (Greiner). The seeded plates are incubated overnight at 37° C. in 5% CO2.
(§3) Human orexin-A as an agonist is prepared as 1 mM stock solution in MeOH: water (1:1), diluted in HBSS containing 0.1% bovine serum albumin (BSA), NaHCO3: 0.375 g/l and 20 mM HEPES for use in the assay at a final concentration of 3 nM.
(§4) Antagonists are prepared as 10 mM stock solution in DMSO, then diluted in 384-well plates using DMSO followed by a transfer of the dilutions into in HBSS containing 0.1% bovine serum albumin (BSA), NaHCO3: 0.375 g/l and 20 mM HEPES. On the day of the assay, 50 μl of staining buffer (HBSS containing 1% FCS, 20 mM HEPES, NaHCO3: 0.375 g/l, 5 mM probenecid (Sigma) and […] of the fluorescent calcium indicator fluo-4 AM (1 mM stock solution in DMSO, containing 10% pluronic) is added to each well. The 384-well cell-plates are incubated for 50 min at 37° C. in 5% CO2 followed by equilibration at RT for 30 min before measurement.
(§5) Within the Fluorescent Imaging Plate Reader (FLIPR Tetra, Molecular Devices), antagonists are added to the plate in a volume of 10 μl/well, incubated for 120 min and finally 10 μl/well of agonist is added. Fluorescence is measured for each well at 1 second intervals, and the height of each fluorescence peak is compared to the height of the fluorescence peak induced by an approximate EC70 (for example 5 nM) of orexin-A with vehicle in place of antagonist. The IC50 value (the concentration of compound needed to inhibit 50% of the agonistic response) is determined and may be normalized using the obtained IC50 value of a on-plate reference compound. Optimized conditions are achieved by adjustment of pipetting speed and cell splitting regime. The calculated IC50 values may fluctuate depending on the daily cellular assay performance. Fluctuations of this kind are known to those skilled in the art. Average IC50 values from several measurements are given as geometric mean values.

[2] = biological target: human orexin-2 receptor (Homo sapiens (Human), UniProt O43614); test: as above; assay type: cell-based; settings: CHO cells expressing human orexin-2 receptor, orexin-A agonist, geometric mean, read-out: IC50 Ox2
Sequence of human orexin-2 receptor (O43614 whole entry): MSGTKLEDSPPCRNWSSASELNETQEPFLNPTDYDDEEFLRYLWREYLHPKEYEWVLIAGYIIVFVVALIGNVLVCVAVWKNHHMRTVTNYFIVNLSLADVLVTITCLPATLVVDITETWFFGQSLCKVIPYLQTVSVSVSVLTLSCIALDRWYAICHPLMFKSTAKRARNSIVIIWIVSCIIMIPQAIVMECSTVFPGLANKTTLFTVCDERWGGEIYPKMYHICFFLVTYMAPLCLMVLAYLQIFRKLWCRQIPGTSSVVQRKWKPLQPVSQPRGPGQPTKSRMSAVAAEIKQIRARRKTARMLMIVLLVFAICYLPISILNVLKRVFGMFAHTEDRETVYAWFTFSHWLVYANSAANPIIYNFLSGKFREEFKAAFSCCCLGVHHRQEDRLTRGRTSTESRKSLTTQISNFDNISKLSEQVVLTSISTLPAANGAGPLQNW
Experimental: as §1, §2, §3, §4, §5

Sequence of human orexin-1 receptor (O43613 whole entry): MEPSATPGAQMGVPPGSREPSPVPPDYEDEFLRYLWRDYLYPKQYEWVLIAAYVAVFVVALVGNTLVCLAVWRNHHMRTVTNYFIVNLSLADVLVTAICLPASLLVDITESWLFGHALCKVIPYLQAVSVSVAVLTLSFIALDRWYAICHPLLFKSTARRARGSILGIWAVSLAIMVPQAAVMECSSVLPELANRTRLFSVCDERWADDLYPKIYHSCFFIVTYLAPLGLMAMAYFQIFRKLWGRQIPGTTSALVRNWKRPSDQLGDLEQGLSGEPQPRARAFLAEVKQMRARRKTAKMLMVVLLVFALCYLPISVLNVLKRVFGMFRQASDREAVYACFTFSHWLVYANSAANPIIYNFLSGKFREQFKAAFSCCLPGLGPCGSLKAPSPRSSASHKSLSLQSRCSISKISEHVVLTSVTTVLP

Row | Structure (SMILES) | IC50 [1] [nM] | IC50 [2] [nM]
1 | Cc1ccc(-c2ccc(C)cc2C(=O)N2CCC[C@@]2(C)c2nc3cc(C)c(C)cc3n2C)cc1 [Ex. 7.37] | 11 | 20
2 | C=C1C[C@@H](c2nc3c(C)c(Cl)ccc3[nH]2)N(C(=O)c2nc(C)sc2-c2ccc(C)c(C)c2)C1 [Ex. 6.54] | 3 | 1
3 | C=C1C[C@@H](c2nc3cc(OC)ccc3[nH]2)N(C(=O)c2nc(C)sc2-c2ccccc2Cl)C1 [Ex. 6.34] | 398 | 66
4 | Cc1ccc(-n2nccn2)c(C(=O)N2CCC[C@@]2(C)c2nc3cc(C(F)(F)F)ccc3[nH]2)c1F [Ex. 5.169] | 63 | 197
5 | Cc1ccc(-n2nccn2)c(C(=O)N2CC[C@H](C)[C@H]2c2nc3cc(Cl)cc(C)c3[nH]2)c1 [Ex. 4.39] | 14 | 315
6 | Cc1cccc(C(=O)N2CCC[C@@]2(C)c2nc3cc(C(F)(F)F)ccc3[nH]2)c1-n1nccn1 [Ex. 5.179] | 368 | 1120
7 | CSc1cccc2nc([C@@H]3CCCN3C(=O)c3nc(C)sc3-c3cccc(F)c3)[nH]c12 [Ex. 1.65] | 63 | 147
8 | C=C1C[C@@H](c2nc3cccc(C)c3[nH]2)N(C(=O)c2nc(C)sc2-c2ccc(Cl)cc2)C1 [Ex. 6.109] | 112 | 7
9 | Cc1ccc(-n2nccn2)c(C(=O)N2C[C@H](F)C[C@H]2c2nc3c(C)cccc3[nH]2)c1 [Ex. 2.11] | 69 | 124
10 | Cc1ccc(-n2cccn2)c(C(=O)N2CCC[C@@]2(C)c2nc3c(C)c(Cl)ccc3[nH]2)c1 [Ex. 5.43] | 3 | 14
11 | Cc1nc(C(=O)N2C[C@@H](F)C[C@H]2c2nc3c(C)cccc3[nH]2)c(-c2ccccc2)s1 [Ex. 2.2] | 1300 | 317
12 | COc1cc2nc([C@]3(C)CCCN3C(=O)c3ccccc3-c3ccc(C)cc3)[nH]c2cc1OC [Ex. 5.88] | 192 | 166
13 | COc1ccc2nc([C@@H]3CCCN3C(=O)c3nc(C4CC4)sc3-c3ccc(C)cc3)[nH]c2c1 [Ex. 1.23] | 523 | 212
14 | Cc1ccc(-c2ccccc2C(=O)N2CCC[C@@]2(C)c2nc3cc(C)c(C)cc3[nH]2)cc1 [Ex. 5.107] | 58 | 53
15 | Cc1nc(C(=O)N2CC[C@H](C)[C@H]2c2nc3c(C)c(Cl)ccc3[nH]2)c(-c2cc(F)cc(F)c2)s1 [Ex. 4.67] | 0.9 | 251
16 | Cc1nc(C(=O)N2CCCC2c2nc3c(C(F)(F)F)cccc3[nH]2)c(-c2cccc(Cl)c2)s1 (stereo not shown) [Ex. 1.105] | 45 | 89
17 | C=C1C[C@@H](c2nc3ccc(Cl)c(C)c3[nH]2)N(C(=O)c2nc(C)sc2-c2cccc(Br)c2)C1 [Ex. 6.123] | 2 | 0.7
18 | Cc1nc(C(=O)N2CCCC2c2nc3cc(C)c(C)cc3[nH]2)c(-c2cccc(Cl)c2)s1 (stereo not shown) [Ex. 1.95] | 18 | 15
19 | Cc1cc2[nH]c([C@@H]3[C@@H](C)CCN3C(=O)c3cc(Cl)ccc3-c3ccccc3)nc2cc1Cl [Ex. 4.103] | 4 | 178
20 | COc1ccc(-n2nccn2)c(C(=O)N2CCC[C@@]2(C)c2nc3c(C)cccc3[nH]2)c1 [Ex. 5.50] | 49 | 33
21 | C=C1C[C@@H](c2nc3cc(OC)ccc3[nH]2)N(C(=O)c2nc(C)sc2-c2cccc(C(F)(F)F)c2)C1 [Ex. 6.30] | 203 | 31
22 | CSc1ccc2nc([C@@H]3CCCN3C(=O)c3c(F)cccc3-n3nccn3)[nH]c2c1 [Ex. 1.148] | 1170 | 44

Row | Structure (SMILES) | IC50 [1] [nM] | IC50 [2] [nM]
23 | Cc1nc(C(=O)N2CCC[C@@]2(C)c2nc3c(F)c(F)ccc3[nH]2)c(-c2cccc(Cl)c2)s1 [Ex. 5.207] | 15 | 78
24 | Cc1ccc(-c2ccc(C)cc2C(=O)N2CCC[C@@]2(C)c2nc3cc(C)c(C)cc3[nH]2)cc1 [Ex. 5.100] | 17 | 27
25 | C=C1C[C@@H](c2nc3cc(OC)ccc3[nH]2)N(C(=O)c2nc(C)sc2-c2cc(F)cc(F)c2)C1 [Ex. 6.37] | 422 | 45
26 | COc1cc2nc([C@]3(C)CCCN3C(=O)c3sc(C)nc3-c3ccc(C)cc3)[nH]c2cc1OC [Ex. 5.75] | 300 | 126
27 | Cc1ccc(-c2ccc3c(c2)OCO3)c(C(=O)N2CCC[C@@]2(C)c2nc3cc(C(F)(F)F)c(Cl)cc3[nH]2)c1 [Ex. 5.156] | 38 | 54
28 | Cc1ccc(-n2nccn2)c(C(=O)N2CCC[C@@]2(C)c2nc3cc(C(C)(C)C)ccc3[nH]2)c1 [Ex. 5.13] | 6 | 31
29 | COc1cc2nc([C@]3(C)CCCN3C(=O)c3ccccc3-n3cccn3)[nH]c2cc1OC [Ex. 5.81] | 258 | 130
30 | COc1cc2nc([C@@H]3[C@@H](C)CCN3C(=O)c3cc(C)ccc3-c3ncccn3)[nH]c2cc1OC [Ex. 4.179] | 27 | 69
31 | Cc1nc(C(=O)N2CCCC2c2nc3cc(Cl)ccc3[nH]2)c(-c2cccc(Cl)c2)s1 (stereo not shown) [Ex. 1.97] | 95 | 314
32 | COc1cccc(-c2nc(C(=O)N3CCC[C@@]3(C)c3nc4cc(Cl)c(C(F)(F)F)cc4[nH]3)c(-c3ccc(F)cc3)s2)c1 [Ex. 5.292] | 34 | 671
33 | Cc1ccc2[nH]c([C@]3(C)CCCN3C(=O)c3ccccc3-c3ccc(F)cc3)nc2c1C [Ex. 5.122] | 99 | 74
34 | Cc1nc(C(=O)N2CC[C@H](C)[C@H]2c2nc3cccc(Cl)c3[nH]2)c(-c2cccc(Cl)c2)s1 [Ex. 4.22] | 6 | 1080
35 | CSc1cccc2nc([C@@H]3CCCN3C(=O)c3cnc(C)nc3-c3ccccc3)[nH]c12 [Ex. 1.87] | 30 | 77
36 | COc1cc2nc([C@@H]3[C@@H](C)CCN3C(=O)c3nc(C)sc3-c3ccc(C(F)(F)F)cc3)[nH]c2cc1OC [Ex. 4.50] | 373 | 4220
37 | Cc1cccc2[nH]c([C@]3(C)CCCN3C(=O)c3cc(Cl)ccc3-n3nccn3)nc12 [Ex. 5.49] | 85 | 114
38 | C=C1C[C@@H](c2nc3cc(Cl)c(C(F)(F)F)cc3[nH]2)N(C(=O)c2cc(C)ccc2-n2nccn2)C1 [Ex. 6.67] | 9 | 5
39 | Cc1nc(C(=O)N2CC[C@H](C)[C@H]2c2nc3c(C(F)(F)F)cccc3[nH]2)c(-c2ccccc2Cl)s1 [Ex. 4.155] | 42 | 891
40 | Cc1cc(C(=O)N2CCC[C@@]2(C)c2nc3cc(OC(F)(F)F)ccc3[nH]2)c(-n2nccn2)cc1C [Ex. 5.235] | 5 | 16.5
41 | C=C1CN(C(=O)c2ccccc2-c2ccccc2)C(C)(c2nc3cc(OC)ccc3[nH]2)C1 (stereo not shown) [Ex. 6.150] | 218 | 91
42 | Cc1nc(C(=O)N2CCCC2c2nc3cc(Cl)c(C)cc3[nH]2)c(-c2ccccc2)s1 (stereo not shown) [Ex. 1.126] | 18 | 24
43 | C=C1C[C@@H](c2nc3c(C)c(Cl)ccc3[nH]2)N(C(=O)c2nc(C)sc2-c2cccc(Cl)c2)C1 [Ex. 6.45] | 1 | 1
44 | Cc1c(Cl)ccc2[nH]c([C@@H]3[C@@H](C)CCN3C(=O)c3c(F)cccc3-c3ncccn3)nc12 [Ex. 4.177] | 9 | 219
